# Test results reported in patent US5990083A, “Multicatalytic protease inhibitors” (Cephalon, Inc., priority 1997, dated 1999).
# Assays:
# Assay type in all cases: cell-based, human
# [1] = tested on: wild-type and FALS mutant (Ala4→Val, Ile113→Thr) SOD-1 in 293 cells; assay: Dose response of SOD-1 isoforms in stably transformed 293 cell lines
# Method: Cells were maintained in G418 selection for three weeks at which time drug selection was removed and the G418-resistant colonies of each transformed cell type were pooled for further growth. Compound 14 was utilized in these studies.
# Cell lines expressing the indicated SOD-1 isoforms were incubated with various concentrations of compound 14 for 24 hours at which time the SOD-1 levels were measured by densitometric scanning of immunoblots.
# [2] = tested on: wild-type SOD-1 in transformed 293 cells; assay: Specificity of MCP activity in SOD-1 turnover, wild-type cell line; settings: 20 μM, 24 hours; FIG. 7
# Method: (§1) Res. Comm. (1988) 153: 1201.), a cell penetrating "calpain" inhibitor (calpain is a cysteine protease); and DK-3 (Enzyme Systems Products, Dublin, Calif. CBZ-Phe-Ala-CHN2) inhibits lysosomal protease activity. […] Cell lines expressing the indicated SOD-1 isoforms were incubated for 24 hours with the following protease inhibitors: Compound 14, 20 μM; Calpeptin, 10 μM; DK-3, 5 μM; Compound 16, 20 μM; or with DMSO as a negative control. After the 24 hours of incubation with the inhibitors, SOD-1 levels were measured by densitometric scanning of immunoblots. […] Each data point is the average of results from three experiments.
# [3] = tested on: Ala4→Val mutant SOD-1 in transformed 293 cells; assay: Specificity of MCP activity in SOD-1 turnover, Ala4→Val cell line; settings: 20 μM, 24 hours; FIG. 7; relative to untreated samples
# Method: as §1
structure (smiles),measurement,setting,value
"CC(C)C[C@@H](C=O)NC(=O)[C@H](CCCNC(=N)N[N+](=O)[O-])NC(=O)C(CCCCCCCCC#N)C1CCCC1 (stereo partly drawn) [Compound 14, 10-cyano-2-cyclopentyldecanoyl-N^g-nitro-L-arginyl-L-leucinal]",Concentration giving maximal SOD-1 accumulation,"[1]; 24 hours, FIG. 6",approximately 20 μM
same,Reduction of wild-type and mutant SOD-1 degradation,[1]; summary statement,reduces wild-type and mutant SOD-1 degradation in a dose-dependent manner
same,Accumulation of SOD-1 protein levels,"[1]; various concentrations, 24 hours, FIG. 6",significant accumulations of SOD-1 protein levels
same,Effect on turnover of the wild-type SOD-1 protein,"[1]; wild-type SOD-1 cell line, dose response",statistically significant effect
same,Wild-type SOD-1 accumulation,[2],slight increase
same,Increase in the accumulation of SOD-1 protein (Ala4→Val mutant),[3],three-fold
